Patent publication US8754132B2 (The Board of Trustees of the University of Illinois, priority 2010, dated 2014)
Where “and” joins values, the source holds several entries; their conditions need not be identical. Equal values may be shown once. Where a name gives a salt, the structure may show the parent alone. Read-outs that look alike come from different tables or passages of the source.

What was measured:
[1] = biological target: T1, human 5-HT(2C) (INI) receptor (Homo sapiens, UniProt P28335); test: Calcium flux assay, stably transfected HEK-293 cells, 5-HT2C; assay type: cell-based; conditions: for 5-HT2C % Max ± SEM: percent of maximal activation by 5-HT; for Emax 2C/2A / Emax 2C/2B: Emax ratio
T1 construct: expressed in transfected cells
T1 sequence (P28335 33-458): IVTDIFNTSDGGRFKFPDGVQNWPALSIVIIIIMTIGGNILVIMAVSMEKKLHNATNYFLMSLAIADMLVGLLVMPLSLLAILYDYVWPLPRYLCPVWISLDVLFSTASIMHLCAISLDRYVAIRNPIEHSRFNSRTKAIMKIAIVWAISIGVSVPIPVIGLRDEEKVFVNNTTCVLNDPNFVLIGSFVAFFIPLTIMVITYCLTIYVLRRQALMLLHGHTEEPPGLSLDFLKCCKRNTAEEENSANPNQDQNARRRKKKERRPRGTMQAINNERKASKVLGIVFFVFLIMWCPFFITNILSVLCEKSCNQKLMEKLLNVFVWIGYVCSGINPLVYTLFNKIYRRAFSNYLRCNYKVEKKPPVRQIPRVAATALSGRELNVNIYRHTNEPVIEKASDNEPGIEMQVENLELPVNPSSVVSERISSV

5-HT(2A) receptor [2] = biological target: T2, 5-HT(2A) receptor (Homo sapiens, UniProt P28223); test: cell-based; assay type: cell-based; design: expressed in transfected cells; conditions: for 5-HT2A % Max ± SEM: percent of maximal activation by 5-HT, activation at 10 μM for compounds without EC50 value
5-HT(2B) receptor [3] = biological target: T3, 5-HT(2B) receptor (Homo sapiens, UniProt P41595); test: Calcium flux assay, stably transfected HEK-293 cells, 5-HT2B; assay type: cell-based; design: expressed in transfected cells; conditions: for 5-HT2B % Max ± SEM: percent of maximal activation by 5-HT, activation at 10 μM for compounds without EC50 value
5-HT(2B) receptor [4] = biological target: T3, 5-HT(2B) receptor; test: 5-HT(2B) antagonism, shift of 5-HT concentration curve in calcium flux experiments, Schild analysis
CYP2C9 = CYP2C9 (Homo sapiens, UniProt P11712); test: Recombinant CYP inhibition, CYP2C9; assay type: in vitro ADME; conditions: recombinant CYP2C9, probe tolbutamide, substrate tolbutamide, recombinant enzyme, read-out: % Inhibition at 10 μM, CYP 2C9
CYP2D6 = CYP2D6 (Homo sapiens, UniProt P10635); test: Recombinant CYP inhibition, CYP2D6; assay type: in vitro ADME; conditions: recombinant CYP2D6, probe dextromethorphan, substrate dextromethorphan, recombinant enzyme, read-out: % Inhibition at 10 μM, CYP 2D6
CYP3A4 = CYP3A4 (Homo sapiens, UniProt P08684); test: Recombinant CYP inhibition, CYP3A4; assay type: in vitro ADME; conditions: recombinant enzyme, read-out: % Inhibition at 10 μM, CYP 3A4
[5] = Stability in liver microsomes, human; assay type: in vitro ADME; conditions: NADPH, 37° C.
[6] = Stability in liver microsomes, rat; assay type: in vitro ADME; conditions: NADPH, 37° C.
Protocol: Stability in Liver Microsomes. For each sample to be investigated, the following was mixed: microsomes (50 μL, 0.5 mg/mL), MgCl2 solution (50 μL, 50 mM), phosphate buffer (250 μL, 100 mM), water (95 μL), test compound (+)-12 (5 μL, 200 μM). Verapamil was tested as a positive control. The reaction was performed at 37° C. and initiated by the addition of NADPH (50 μL, 10 mM) or, for the negative control, by the addition of water (50 μL). Aliquots of 50 μL were taken form the solution after 0, 15, 30, 45, and 60 minutes and the reaction stopped by the addition of 150 μL cold methanol to the aliquot. The samples were centrifuged (16000 rpm, 10 min). 100 μL supernatant was used for LC-MS-MS investigation. All incubations were performed in duplicate. Separation of the sample components was performed on a Waters ACQUITY UPLC C18 (2.1 mm×50 mm) column, using mobile phase mixtures between 0.1% formic acid in MeCN and 0.1% formic acid in water (elution rate 0.5 mL/min, column temperature 25° C.). […] The in vitro intrinsic clearance (in vitro CLint) was calculated according to: in vitro CLint=(0.693/t1/2)×(volume of incubation (μL)/amount of proteins (mg)).

[7] = system: PCP-disrupted PPI in mice; test: Prepulse inhibition (PPI) animal study, PCP-disrupted PPI; conditions: PCP 6 mg/kg i.p.
[8] = 10-60 mg/kg, behavioral assay, reference (15); cited from earlier work
5-HT(2A) receptor [9] = biological target: T2, 5-HT(2A) receptor; test: Modulation of 5-HT(2) family receptors, Table 1, 2A Receptor; assay type: cell-based; conditions: for 2A Receptor ED50: NA = No activity
5-HT(2B) receptor [10] = biological target: T3, 5-HT(2B) receptor; test: Modulation of 5-HT(2) family receptors, Table 1, 2B Receptor; assay type: cell-based; conditions: for 2B Receptor ED50: NA = No activity
5-HT(2C) receptor = biological target: T4, 5-HT(2C) receptor (Homo sapiens, UniProt P28335); test: Modulation of 5-HT(2) family receptors, Table 1, 2C Receptor; assay type: cell-based
T4 sequence (P28335 33-458): T1 sequence (P28335 33-458)

[11] = 5-HT2C EC50 ± SEM, Table 2, second section
[12] = Table 2, second section, read-out: 5-HT2C EC50 ± SEM
[13] = Table 2, second section, EC50 ratio

T2 sequence (P28223 whole entry): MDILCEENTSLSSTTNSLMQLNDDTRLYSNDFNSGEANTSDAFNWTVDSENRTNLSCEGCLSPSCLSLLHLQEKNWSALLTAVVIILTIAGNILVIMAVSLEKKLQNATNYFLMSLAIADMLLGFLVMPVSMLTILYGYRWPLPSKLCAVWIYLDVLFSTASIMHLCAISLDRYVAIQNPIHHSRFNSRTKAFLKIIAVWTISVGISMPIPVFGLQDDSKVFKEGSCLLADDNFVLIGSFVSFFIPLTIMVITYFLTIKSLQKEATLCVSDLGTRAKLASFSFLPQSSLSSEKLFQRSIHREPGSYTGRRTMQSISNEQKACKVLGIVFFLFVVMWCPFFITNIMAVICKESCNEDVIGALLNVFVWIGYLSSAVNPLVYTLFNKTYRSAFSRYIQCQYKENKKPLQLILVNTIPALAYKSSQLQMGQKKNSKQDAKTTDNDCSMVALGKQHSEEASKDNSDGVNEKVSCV
T3 sequence (P41595 whole entry): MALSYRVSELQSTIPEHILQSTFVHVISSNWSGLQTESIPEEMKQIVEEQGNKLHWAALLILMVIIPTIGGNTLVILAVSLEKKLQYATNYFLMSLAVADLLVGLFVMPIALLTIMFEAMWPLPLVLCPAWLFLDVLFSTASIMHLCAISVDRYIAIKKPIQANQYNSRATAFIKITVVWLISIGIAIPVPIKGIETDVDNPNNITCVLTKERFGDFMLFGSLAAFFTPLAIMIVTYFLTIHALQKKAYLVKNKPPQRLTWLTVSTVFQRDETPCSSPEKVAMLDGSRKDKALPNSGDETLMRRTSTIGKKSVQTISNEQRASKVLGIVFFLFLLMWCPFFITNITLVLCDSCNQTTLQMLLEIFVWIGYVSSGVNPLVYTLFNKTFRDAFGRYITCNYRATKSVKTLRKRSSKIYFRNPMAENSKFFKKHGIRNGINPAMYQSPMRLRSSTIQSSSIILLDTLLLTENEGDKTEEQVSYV
CYP3A4, sequence (P08684 whole entry): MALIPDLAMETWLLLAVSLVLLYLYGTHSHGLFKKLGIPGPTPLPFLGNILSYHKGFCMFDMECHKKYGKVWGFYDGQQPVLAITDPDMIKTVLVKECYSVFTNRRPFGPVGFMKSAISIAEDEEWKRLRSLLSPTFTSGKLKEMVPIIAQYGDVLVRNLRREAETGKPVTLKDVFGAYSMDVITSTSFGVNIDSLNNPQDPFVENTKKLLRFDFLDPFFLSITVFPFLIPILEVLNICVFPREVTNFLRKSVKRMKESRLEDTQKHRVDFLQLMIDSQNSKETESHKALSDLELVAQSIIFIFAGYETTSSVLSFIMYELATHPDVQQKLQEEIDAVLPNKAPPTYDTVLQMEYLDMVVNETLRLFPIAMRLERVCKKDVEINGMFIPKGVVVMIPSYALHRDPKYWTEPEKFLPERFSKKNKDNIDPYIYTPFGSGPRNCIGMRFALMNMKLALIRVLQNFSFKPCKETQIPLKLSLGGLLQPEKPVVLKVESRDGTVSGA
CYP2C9, sequence (P11712 whole entry): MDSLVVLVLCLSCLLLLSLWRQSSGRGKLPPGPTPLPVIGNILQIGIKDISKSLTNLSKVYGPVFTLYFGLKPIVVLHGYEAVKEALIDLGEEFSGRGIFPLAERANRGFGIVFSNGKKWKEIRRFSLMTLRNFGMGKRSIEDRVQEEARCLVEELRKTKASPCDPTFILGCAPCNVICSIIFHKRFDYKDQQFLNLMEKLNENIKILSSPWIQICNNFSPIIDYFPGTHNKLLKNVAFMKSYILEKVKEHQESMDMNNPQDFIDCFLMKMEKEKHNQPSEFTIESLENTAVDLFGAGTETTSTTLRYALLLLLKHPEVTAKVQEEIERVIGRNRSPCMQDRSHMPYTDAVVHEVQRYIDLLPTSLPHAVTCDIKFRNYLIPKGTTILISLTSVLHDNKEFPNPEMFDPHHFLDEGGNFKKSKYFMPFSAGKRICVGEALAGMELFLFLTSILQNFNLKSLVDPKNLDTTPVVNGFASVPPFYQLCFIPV
CYP2D6, sequence (P10635 whole entry): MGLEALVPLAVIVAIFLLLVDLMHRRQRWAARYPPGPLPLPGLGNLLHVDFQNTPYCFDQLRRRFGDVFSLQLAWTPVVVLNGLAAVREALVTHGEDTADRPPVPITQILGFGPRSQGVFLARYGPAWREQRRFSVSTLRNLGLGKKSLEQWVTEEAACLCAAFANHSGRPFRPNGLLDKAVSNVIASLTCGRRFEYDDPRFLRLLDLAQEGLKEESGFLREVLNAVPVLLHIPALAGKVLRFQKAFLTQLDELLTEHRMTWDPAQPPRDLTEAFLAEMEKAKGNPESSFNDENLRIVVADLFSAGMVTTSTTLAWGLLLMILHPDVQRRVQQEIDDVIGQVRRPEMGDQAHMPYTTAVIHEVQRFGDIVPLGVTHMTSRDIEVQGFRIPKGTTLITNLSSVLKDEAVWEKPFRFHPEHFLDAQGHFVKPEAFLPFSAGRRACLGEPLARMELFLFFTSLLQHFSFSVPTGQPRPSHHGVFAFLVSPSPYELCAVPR

## Cl.NC[C@@H]1C[C@H]1c1cc(F)ccc1OCC1CC1 (racemic) [Compound 12, trans-[2-(2-Cyclopropylmethyloxy-5-fluorophenyl)cyclopropyl]methylamine Hydrochloride]
[1]; EC50 at the 5-HT(2C) receptor, running text b178, functional assays
  EC50: 254 nM
[1]; Table 2, first section, EC50 ratio
  Selectivity 2A/2C: 77
[1]; Table 2, first section
  5-HT2C % Max ± SEM: 68% ±
[1]; Table 2, first section, read-out: 5-HT2C EC50 ± SEM
  EC50: 9.9 nM
5-HT(2A) receptor [2]; Table 2, first section
  5-HT2A % Max ± SEM: 11% ±
5-HT(2A) receptor [2]; read-out: 5-HT2A EC50 ± SEM
  EC50: 761 nM
5-HT(2B) receptor [3]; Table 2, first section
  5-HT2B % Max ± SEM: 2% ±

## Cl.NC[C@@H]1C[C@H]1c1cc(O)ccc1OCC1CC1 (racemic) [Compound 18, trans-[2-(2-Cyclopropylmethyloxy-5-hydroxyphenyl)cyclopropyl]methylamine Hydrochloride]
[1]; 5-HT2C EC50 ± SEM, Table 2, first section
  EC50: 19 nM
[1]; Table 2, first section
  5-HT2C % Max ± SEM: 68% ±
5-HT(2A) receptor [2]; Table 2, first section
  5-HT2A % Max ± SEM: 7% ±
5-HT(2B) receptor [3]; Table 2, first section
  5-HT2B % Max ± SEM: 6% ±

## NC[C@@H]1C[C@H]1c1cc(F)ccc1OCC1CC1 (relative stereo) [Compound 12, trans-[2-(2-Cyclopropylmethyloxy-5-fluorophenyl)cyclopropyl]methylamine Hydrochloride]
[1]; Table 2, first section
  Emax 2C/2A: 6.2
  Emax 2C/2B: 38
5-HT(2A) receptor [2]; functional assays
  activation of the 5-HT(2A) receptor (in words): not to activate
5-HT(2B) receptor [3]; functional assays
  activation of the 5-HT(2B) receptor (in words): not to activate

## NC[C@@H]1C[C@H]1c1cc(O)ccc1OCC1CC1 (relative stereo) [Compound 18, trans-[2-(2-Cyclopropylmethyloxy-5-hydroxyphenyl)cyclopropyl]methylamine Hydrochloride]
[1]; Table 2, first section
  Emax 2C/2A: 9.4
  Emax 2C/2B: 12

## NCC1CC1c1cc(O)ccc1OCC1CC1 (single isomer, unassigned; (-)) [(−)-18]
[1]; [11]
  EC50: 361 nM
[1]; Table 2, second section
  Emax 2C/2A: 19
  Emax 2C/2B: >>
  5-HT2C % Max ± SEM: 51% ±
5-HT(2A) receptor [2]; Table 2, second section
  5-HT2A % Max ± SEM: 3% ±
5-HT(2B) receptor [3]; Table 2, second section
  5-HT2B % Max ± SEM: 0% ±

## C[C@H]1CNCCc2ccc(Cl)cc21 [2 (Lorcaserin), Lorcaserin, reference compound]
[1]
  agonist potency at the 5-HT(2C) receptor (in words): low nM potency
[1]; Table 2, first section
  5-HT2C % Max ± SEM: 99% ±
[1]; Table 2, second section
  5-HT2C % Max ± SEM: 94% ±
5-HT(2A) receptor [2]; Table 2, first section
  5-HT2A % Max ± SEM: 24% ±
5-HT(2A) receptor [2]; Table 2, second section
  5-HT2A % Max ± SEM: 31% ±
5-HT(2B) receptor [3]; Table 2, first section
  5-HT2B % Max ± SEM: 93% ±
5-HT(2B) receptor [3]; Table 2, second section
  5-HT2B % Max ± SEM: 86% ±

## NCC1CC1c1cc(F)ccc1OCC1CC1 [(+)-12, (+)-trans-(S,S)-[2-(2-Cyclopropylmethyloxy-5-fluorophenyl)cyclopropyl]methylamine Hydrochloride]
[1]; [12]
  EC50: 21 nM
5-HT(2A) receptor [2]; Table 2, second section (second screening campaign), NA: Emax ≦ 12%, read-out: 5-HT2A EC50 ± SEM
  EC50: 894 nM
5-HT(2B) receptor [3]; Table 2, second section, NA: Emax ≦ 12%, read-out: 5-HT2B EC50 ± SEM
  EC50: 289 nM
5-HT(2B) receptor [4]
  Kb: 3160 nM

## NC[C@H]1C[C@@H]1c1cc(F)ccc1OCC1CC1 [(+)-12, (+)-trans-(S,S)-[2-(2-Cyclopropylmethyloxy-5-fluorophenyl)cyclopropyl]methylamine Hydrochloride]
[1]; [13]
  Selectivity 2A/2C: 42
  Selectivity 2B/2C: 14
[1]; Table 2, second section
  Emax 2C/2A: 2.5
  Emax 2C/2B: 3.4
  5-HT2C % Max ± SEM: 71% ±
CYP2C9
  inhibition at 20 min, 10 µM: 19.6%
CYP2D6
  inhibition at 20 min, 10 µM: 27%
CYP3A4; recombinant CYP3A4, probe midazolam, substrate midazolam
  inhibition at 5 min, 10 µM: 21.7%
CYP3A4; recombinant CYP3A4, probe testosterone, substrate testosterone
  inhibition at 5 min, 10 µM: 25.1%
[5]
  Microsomal stability (% remaining), human: 90.50%
[6]
  Microsomal stability (% remaining), rat: 66.03%
5-HT(2A) receptor [2]; Table 2, second section
  5-HT2A % Max ± SEM: 29% ±
5-HT(2B) receptor [3]; Table 2, second section
  5-HT2B % Max ± SEM: 21% ±
[7]; 5 mg/kg dose level
  normalization of PCP-disrupted PPI: still effective
[7]; 10 mg/kg
  normalization of PCP-disrupted PPI: able to normalize PCP-disrupted PPI

## NC[C@H]1C[C@@H]1c1cc(O)ccc1OCC1CC1 [(+)-18, (+)-trans-(S,S)-[2-(2-Cyclopropylmethyloxy-5-hydroxyphenyl)cyclopropyl]methylamine Hydrochloride]
[1]; [11]
  EC50: 9.3 nM
[1]; [13]
  Selectivity 2A/2C: 40
[1]; Table 2, second section
  Emax 2C/2A: 3.9
  Emax 2C/2B: 11
  5-HT2C % Max ± SEM: 70% ±
5-HT(2A) receptor [2]; 5-HT2A EC50 ± SEM, Table 2, second section (second screening campaign), NA: Emax ≦ 12%
  EC50: 372 nM
5-HT(2A) receptor [2]; Table 2, second section
  5-HT2A % Max ± SEM: 18% ±
5-HT(2B) receptor [3]; Table 2, second section
  5-HT2B % Max ± SEM: 6% ±
[7]; 10 mg/kg
  normalization of PCP-disrupted PPI: able to normalize PCP-disrupted PPI
5-HT(2B) receptor [4]; 5-HT(2B) antagonism against 5-HT, calcium flux, n=3
  pA2 (±SEM), Schild analysis: 5.79±0.07

## Cc1cccc(C2CC2CN)c1 (stereo not shown) [Compound 1]
[8]
  antidepressant-like effects: moderate antidepressant-like effects

## NCCc1c[nH]c2ccc(O)cc12 [Compound 5-HT, 5-Hydroxytryptamine, reference compound]
5-HT(2A) receptor [2]; Table 2, first section
  5-HT2A % Max ± SEM: 100%
5-HT(2A) receptor [2]; Table 2, second section
  5-HT2A % Max ± SEM: 100% ±

## Cl.NCC1CC1c1ccccc1CCC1CC1 (stereo not shown) [Compound 50]
5-HT(2A) receptor [9]
  2A Receptor ED50: no activity
5-HT(2B) receptor [10]
  2B Receptor ED50: no activity
5-HT(2C) receptor
  2C Receptor Emax: 35 and 60

## Cl.NCC1CC1c1cc(Br)ccc1CCC1CC1 (stereo not shown) [Compound 51]
5-HT(2A) receptor [9]
  2A Receptor ED50: no activity
5-HT(2B) receptor [10]
  2B Receptor ED50: no activity
5-HT(2C) receptor
  2C Receptor Emax: 92

## Cc1ccc(CCC2CC2)c(C2CC2CN)c1.Cl (stereo not shown) [Compound 52]
5-HT(2A) receptor [9]
  2A Receptor Emax: 47
5-HT(2B) receptor [10]
  2B Receptor Emax: 35
5-HT(2C) receptor
  2C Receptor Emax: 98

## CC(C)c1ccc(CCC2CC2)c(C2CC2CN)c1.Cl (stereo not shown) [Compound 53]
5-HT(2A) receptor [9]
  2A Receptor Emax: 92
5-HT(2B) receptor [10]
  2B Receptor Emax: 66
5-HT(2C) receptor
  2C Receptor Emax: 93

## Nc1ccc(S(=O)(=O)Nc2ccnn2-c2ccccc2)cc1 [sulfaphenazole, reference compound]
CYP2C9
  inhibition at 20 min, 10 µM: 94.7%

## trans-[2-(2-cyclopropylmethyloxy-5-fluorophenyl)cyclopropyl]-methylamine hydrochloride [(−)-12]
[1]; Table 2, second section
  Emax 2C/2A: >>
  Emax 2C/2B: 8.0
  5-HT2C % Max ± SEM: 35% ±
[1]; [12]
  EC50: 918 nM
[1]; read-out: EC50 in the 5-HT(2C) assay, running text b178
  EC50: ~2400 nM
5-HT(2A) receptor [2]; Table 2, second section
  5-HT2A % Max ± SEM: 0% ±
5-HT(2B) receptor [3]; Table 2, second section
  5-HT2B % Max ± SEM: 4% ±
